One assay has as its system rabbit or human LDL. As to the kind of experiment: Electrophoretic mobility in agarose gel of LDL oxidised with Cu2+. Type of assay: biochemical. The following applies: 10 µM of Cu²⁺, 37°C approximately 24 hours, expressed by regarding the mobility of LDL as 1.00 (Control 1.61). As to the method:
(§1) The biological properties of the compounds as shown hereinafter were examined by the following methods. • (1) The amount of thiobarbituric acid reactive substances: 5 µM of Cu²⁺ was added to rabbit LDL, prepared by the method reported by Havel et al., followed by heating. Then the antioxidative effect of each compound was examined by using the thiobarbituric acid reactive substances (TBARS) thus formed as the guidance. […] 0.5 ml of an n-butanol solution containing 0.2 µM of MCLA and 10 mM of linoleic acid was introduced into a vial for luminescence analysis and the luminescence due to autoxidation was measured in a thermostat at 37°C. […] To the obtained plasma, were added EDTA-NaN₃ (a 5% solution of pH 7.4) and a benzamidine solution (60 mg/ml) respectively in amounts of 0.8 ml and 0.5 ml per 100 ml of the plasma. Then rabbit or human LDL (1.019 < d < 1.063) was prepared by ultracentrifugation in accordance with the method of Havel et al.*. After performing the ultracentifugation again, the LDL was washed and concentrated. Then it was dialyzed against a 150 mM NaCl - 2 mM Na₂HPO₄ solution at 4°C and KBr was removed. The protein content was determined by Lowry method** and then the LDL was subjected to the subsequent procedure. (Measurement of electrophoretic mobility in agarose gel) 10 µM of Cu²⁺ and a specimen were added to an LDL-containing solution (3.00 µg protein/ml). After incubating at 37°C for approximately 24 hours, a portion (1 µl) thereof was applied onto an agarose gel film (Universal Film, manufactured by Corning Co.) and then subjected to electrophoresis (Agarose Gel Electrophoresis System for Lipoprotein, manufactured by Corning Co.). Thus the mobility was measured by staining lipids with Fat Red 7B. […] After 3 days, peritoneal macrophages were collected from the mouse and incubated in an RPMI 1640 medium containing 10% of FBS. The macrophages were used in the • examination on the next day.

The test system of the next assay is rabbit LDL. As to the kind of experiment: Amount of thiobarbituric acid reactive substances (TBARS) formed on Cu2+ oxidation of LDL. The note with it: 5 µM of Cu²⁺ added to rabbit LDL, followed by heating. Type of assay: biochemical. The protocol: as §1

Consider `COc1cc(NCc2ccccc2)cc(OC)c1OC` [Compound 1, N-benzyl-3,4,5-trimethoxyaniline], for which the Mobility with rabbit or human LDL (Compound conc. 10 x 10⁻⁶ M) is on record as 1.17. Moreover, the “Formed TBARS (%)” value is 33% in the assay with rabbit LDL (Compound conc. 10^-5 M, 10 µM) and 49% with rabbit LDL (Compound conc. 10^-6 M, 1 µM).
Consider `COc1cc(NCc2nccn2CC=C(C)CCC=C(C)CCC=C(C)C)cc(OC)c1OC` [Compound 100], for which the “Formed TBARS (%)” value is 13% in the assay with rabbit LDL (Compound conc. 10^-5 M, 10 µM) and 81% in the assay with rabbit LDL (Compound conc. 10^-6 M, 1 µM).
Taken in the same sequence, the figures for `COc1cc(NC2CCOc3ccccc32)cc(OC)c1OC` (centres unmarked) [Compound 101] were 18% and 41%.
On the same counts, the results for `COc1cc(NCC2CCCC2)cc(OC)c1OC` [Compound 102] are 15% and 27%.
Consider `COc1cc(NCC2CCCCC2)cc(OC)c1OC` [Compound 103], for which the “Formed TBARS (%)” value with rabbit LDL (Compound conc. 10^-5 M, 10 µM) is listed as 8%; with rabbit LDL (Compound conc. 10^-6 M, 1 µM), 23%.
Take `COc1cc(N(CC2CCCCC2)CC2CCCCC2)cc(OC)c1OC` [Compound 104]: the “Formed TBARS (%)” value is listed as 23% in the assay with rabbit LDL (Compound conc. 10^-5 M, 10 µM) and 31% in the assay on rabbit LDL (Compound conc. 10^-6 M, 1 µM).
On the same counts, the results for `COc1cc(NC(C)C2CCCCC2)cc(OC)c1OC` (centres unmarked) [Compound 105] are 8% and 22%.
Taken in the same sequence, the figures for `CCCC(Nc1cc(OC)c(OC)c(OC)c1)C1CCCCC1` (centres unmarked) [Compound 106] were 8% and 16%.
On the same counts, the results for `C=CCC(Nc1cc(OC)c(OC)c(OC)c1)C1CCCCC1` (centres unmarked) [Compound 107] are 7% and 20%.
`CCCCC(Nc1cc(OC)c(OC)c(OC)c1)C1CCCCC1` (centres unmarked) [Compound 108]: the “Formed TBARS (%)” value was determined as 8% with rabbit LDL (Compound conc. 10^-5 M, 10 µM) and 21% in the assay on rabbit LDL (Compound conc. 10^-6 M, 1 µM).
For the compound `COc1cc(NC2CCCC3CCCCC32)cc(OC)c1OC` (centres unmarked) [Compound 109], the “Formed TBARS (%)” value in the assay with rabbit LDL (Compound conc. 10^-5 M, 10 µM) is recorded as 10%; with rabbit LDL (Compound conc. 10^-6 M, 1 µM), 20%.
Taken in the same sequence, the figures for `COc1cc(NC2CCC3CCCCC3C2)cc(OC)c1OC` (centres unmarked) [Compound 110] were 7% and 16%.
Taken in the same sequence, the figures for `CCCCCCCCCCCCNc1cc(OC)c(OC)c(OC)c1` [Compound 113] were 29% and 66%.
Take `CCCCCCCCCCCCN(CCCCCCCCCCCC)c1cc(OC)c(OC)c(OC)c1` [Compound 114]: the “Formed TBARS (%)” value amounted to 93% in the assay with rabbit LDL (Compound conc. 10^-5 M, 10 µM) and 94% with rabbit LDL (Compound conc. 10^-6 M, 1 µM).
On the same counts, the results for `COc1cc(NCCC(C)CCCC(C)CCCC(C)CCCC(C)C)cc(OC)c1OC` (centres unmarked) [Compound 115] are 15% and 71%.
Consider `COc1cc(NCC=C(C)C)cc(OC)c1OC` [Compound 116], for which the “Formed TBARS (%)” value in the assay with rabbit LDL (Compound conc. 10^-5 M, 10 µM) is recorded as 33%; with rabbit LDL (Compound conc. 10^-6 M, 1 µM), 61%.
Taken in the same sequence, the figures for `COc1cc(N(CC=C(C)C)CC=C(C)C)cc(OC)c1OC` [Compound 117] were 35% and 63%.
Turning to `COc1cc(NC/C=C(\C)CCC=C(C)C)cc(OC)c1OC` [Compound 118], the Mobility in the assay with rabbit or human LDL (Compound conc. 10 x 10⁻⁶ M) came to 1.17. The “Formed TBARS (%)” value is reported as 37% with rabbit LDL (Compound conc. 10^-5 M, 10 µM) and 56% in the assay with rabbit LDL (Compound conc. 10^-6 M, 1 µM).
Compound `CC(C)(C)c1cc(CNCc2ccccc2)cc(C(C)(C)C)c1O` [Compound 185, N-benzyl-3,5-di-tert-butyl-4-hydroxybenzylamine] displayed a Mobility in the assay with rabbit or human LDL (Compound conc. 10 x 10⁻⁶ M) of 1.15.
Still for that read-out and setting: with `CC(C)=CCC/C(C)=C/CCC(C)Nc1ccc(-c2cc(C(C)(C)C)c(O)c(C(C)(C)C)c2)cc1` (stereo not drawn) [Compound 188, 4-[4'-[(trans-1,5,9-trimethyl-4,8-decadienyl)amino]phenyl]2,6-di-tert-butylphenol] the figure was 1.15; with `O=C(Nc1ccc(C(=O)c2ccccc2)cc1)c1ccc(O)c(O)c1` [Compound 194], 1.00; with `O=C(c1ccc(O)c(O)c1)N1CCN(C(c2ccccc2)c2ccccc2)CC1` [Compound 197], 1.00.
On the same count and under the same terms, the figure for `Oc1ccc(-c2onc3ccc(Cl)cc23)cc1O` [Compound 205, 3-(3',4'-dihydroxyphenyl)-5-chlorobenzoiso-oxazole] is 1.00.
Compound `CC(C)=CCC/C(C)=C\CC/C(C)=C/Cn1cnc2c1C(=O)C(C)=C(C)C2=O` [Compound 206, 5,6-dimethyl-1-[(2E,6Z)-3,7,11-trimethyldodeca-2,6,10-trienyl]-4,7-benzimidazoledione] had a Mobility with rabbit or human LDL (Compound conc. 100 x 10⁻⁶ M) of 1.00.

The record behind these values is patent EP0515684A1, “INHIBITOR OF DENATURED LDL FORMATION” (Chugai Seiyaku Kabushiki Kaisha, priority 1990, dated 1991).
